# Reference: patent US10239875B2, “Naphthyridinyl hydrazine derivatives as potent peripheral analgesic agents” (KING SAUD UNIVERSITY, priority 2017, dated 2019)
# System: Albino mice
# Assay: mouse writhing test (acetic acid-induced), peripheral analgesic activity
# Format: in vivo
# Settings: for No. of writhes/20 min: 30 min before i.p. acetic acid 0.7% 10 mL/kg, mean ± S.E.; for Protection (%) / analgesic activity compared with acetylsalicylic acid / placebo control (in words): writhing test; for Protection (%): versus placebo control mean; for analgesic activity compared with acetylsalicylic acid / placebo control (in words): 20 mg/kg orally vs acetylsalicylic acid 150 mg/kg, Dunnett's test P < 0.05
# Experimental: The test compounds synthesized in Examples 2-11 were tested for analgesic activity as follows. Albino mice of both sexes (27-30 g body weight each) were used in the experiments. Mice used in this experiment were obtained from the Animal House Colony at the National Research Centre (NRC), Egypt. All animals were housed under standard conditions of natural 12-hour light and dark cycles with free access to food and water. Animals were allowed to adapt to the laboratory environment for one week before use in experimentation. All animal procedures were first approved by the Ethics Committee of the NRC, Egypt, and were performed in accordance with standard recommendations and guidelines for proper care and use of laboratory animals.
# The peripheral analgesic activities of compounds 1 to 10 were determined in mice using the standard writhing test. Seventy-two mice were divided into 12 groups of 6 mice. Mice of the first (placebo control) and last (active control) groups were treated orally (p.o.) with the vehicle (5 mL/kg) or acetyl salicylic acid (150 mg/kg), respectively. Animals of the second to eleventh groups were orally given one of the selected compounds at doses of 20 mg/kg. Once 30 minutes passed after administration of medication, each mouse received an intraperitoneal injection of acetic acid (0.7% aqueous solution) in a dose of 10 mL/kg to induce writhing. The mice were then placed in transparent boxes, and the number of writhes per animal was counted for 20 minutes after acetic acid injection. The “protection %” was calculated using the following equation: Protection (%)=[Control mean−Treated mean/Control mean]×100.
# [1] = acetylsalicylic acid 150 mg/kg orally in DW
# [2] = test compound 20 mg/kg orally in DMSO
Compound,No. of writhes/20 min [1],Protection (%) [1],No. of writhes/20 min [2],Protection (%) [2],analgesic activity compared with acetylsalicylic acid / placebo control (in words)
"CC(=O)Oc1ccccc1C(=O)O [Acetylsalicylic acid, acetylsalicylic acid, reference compound]",17.4 ± 1.57 writhes/20 min,78.47%,–,–,–
Cc1ccc2c(NN=Cc3ccc(N4CCOCC4)cc3)cc(C)nc2n1 [Compound 1],–,–,24.8 ± 1.02 writhes/20 min,69.31%,analgesic activity close to that of acetylsalicylic acid
Cc1ccc2c(NN=Cc3ccc(N4CCNCC4)cc3)cc(C)nc2n1 [Compound 2],–,–,39.6 ± 3.14 writhes/20 min,50.99%,–
Cc1ccc2c(NN=Cc3ccc(N4CCCCC4)cc3)cc(C)nc2n1 [Compound 3],–,–,36.2 ± 2.58 writhes/20 min,55.20%,–
Cc1ccc2c(NN=Cc3ccc(N4CCN(C)CC4)cc3)cc(C)nc2n1 [Compound 4],–,–,44.8 ± 2.85 writhes/20 min,44.55%,–
CC(=NNc1cc(C)nc2nc(C)ccc12)c1ccc(N2CCOCC2)cc1 [Compound 5],–,–,29.2 ± 2.50 writhes/20 min,63.86%,–
CC(=NNc1cc(C)nc2nc(C)ccc12)c1ccc(N2CCNCC2)cc1 [Compound 6],–,–,26.2 ± 1.32 writhes/20 min,67.57%,analgesic activity close to that of acetylsalicylic acid
CC(=NNc1cc(C)nc2nc(C)ccc12)c1ccc(N2CCCCC2)cc1 [Compound 7],–,–,23.6 ± 2.16 writhes/20 min,70.79%,analgesic activity close to that of acetylsalicylic acid
